Measurements from patent publication US20260070927A1, “INDAZOLE MACROCYCLES FOR THE TREATMENT OF AUTOIMMUNE DISEASE” (Hoffmann-La Roche Inc., priority 2022, published 2026).
pIC50: −log10 of the molar value. Where two headings read alike, the source gives them in different places.

What was measured:
STING (IFN-β in hPBMC) = assay: hPBMC cytokine functional assay (IFN-β decrease after Baculovirus stimulation); type: cell-based; conditions: Homo sapiens, Baculovirus MOI 40, 24 hours, read-out: hPBMC_IC50
Method in brief: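 Thawed hPBMC (70K cells/well) rested ≥3 h, then dosed with compound (final 0.5% DMSO) and infected with Baculovirus at MOI 40. Secreted IFN-β read by HTRF after 24 h at 37 °C. Cell viability checked in parallel by CellTiter-Glo.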

hERG channel = hERG channel (Homo sapiens (Human), UniProt Q12809); assay: hERG channel inhibition assay (patch-clamp, CHOhERG cells); type: cell-based; conditions: for IC20: human, CHO cells stably expressing hERG (CHOhERG)
Excerpt: The hERG K^+ channels were cloned in humans and stably expressed in a CHO (Chinese hamster ovary) cell line. CHOhERG cells (obtained from Roche Palo Alto LLC Cell Core Facilities) were used for patch-clamp (voltage-clamp, whole-cell) experiments. Cells were stimulated by a voltage pattern to activate hERG channels and conduct IKhERG currents (rapid delayed outward rectifier potassium current of the hERG channel). After the cells were stabilized in an internal solution that contains (in mM): KCl 10, KF 100, NaCl 10, HEPES 10, EGTA 20, pH=7.2 with KOH (osmolarity 260-300 mOsm) for a few minutes, the amplitude and kinetics of IKhERG were recorded at a stimulation frequency of 0.1 Hz (6 bpm). Thereafter, the test compound was dissolved in extracellular solution that contains (in mM): NaCl 150, KCl 4, CaCl2 1.2, MgCl2 1, HEPES 10, glucose 5, pH 7.2-7.4 with NaOH (osmolarity 290-330 mOsm), and was added to the preparation at increasing concentrations. For each concentration, an attempt was made to reach a steady-state effect, usually, this was achieved within 3-10 min at which time the next highest concentration was applied. The amplitude and kinetics of IKhERG are recorded in each concentration of the drug which were compared to the control values (taken as 100%).

[1] = Single dose pharmacokinetics (SDPK) study in male C57BL/6J mice; type: in vivo; conditions: mouse; for clearance / AUC / half-life / Vd / Cmax: male, C57BL/6J, plasma; for half-life: read-out: T½ (converted); for Vd: read-out: Vss; for F: dose normalized AUCo-last after IV 1 mg/kg and PO 10 mg/kg
Procedure: Single Dose Pharmacokinetics (SDPK) Study in Male C57BL/6J Mice Pharmacokinetic properties of compounds were assessed by single dose PK studies in Male C57BL/6J Mice (vendor: WTLH-BJ). Briefly, two groups of animals were administered a single dose of respective compound intravenously (IV, bolus) at 1 mg/kg or orally (PO, by gavage) at 10 mg/kg. Blood samples were collected via Jugular vein at 5 min (only for IV), 15 min, 30 min, 1 h, 2 h, 4 h, 7 h and 24 h post-dose. Blood samples were placed into pre-chilled commercial EDTA-K2 tubes (vendor: Jiangsu Kangjian medical supplies co., LTD) and centrifuged at 3,200 g for 10 min at 4° C. to separate plasma from the samples. After centrifugation, the resulting plasma was transferred to clean tubes for bioanalysis with LC/MS/MS. The pharmacokinetic parameters were calculated using noncompartmental analysis. The volume of distribution (Vss), half-life (T1/2) and clearance (CL) were obtained based on the plasma concentration-time curve after IV dose. The peak concentration (Cmax) was recorded directly from experimental observations after PO dose. The area under the plasma concentration-time curve (AUCo-last) was calculated using the linear trapezoidal linear interpolation rule up to the last detectable concentration. The bioavailability (F) was calculated based on the dose normalized AUCo-last after IV and PO dose.

[2] = Metabolic (liver microsomal) stability assay; conditions: human liver microsomes, 1 μM test compound
[3] = biological target: human stimulator of interferon genes (STING) (139-379) (Homo sapiens (Human), UniProt Q86WV6); assay: Microliter plate-based TR-FRET competition-binding assay for binders of STING; conditions: Alexa488 probe, read-out: FRET_IC50
Method in brief: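 E. coli-expressed C-terminal flag-tagged STING (139-379) at 2.5 nM with 2.5 nM Tb-anti-Flag and 250 nM Alexa488-labelled active-site probe, 30 min at room temperature. TR-FRET 520/485 nm ratio after 320 nm excitation. Percent inhibition calculated relative to the 2′3′cGAMP positive control.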

[4] = microsomes
[5] = IV 1 mg/kg, read-out: IV AUCo-last
[6] = PO 10 mg/kg, read-out: PO AUCo-last

Chain of hERG channel (Q12809 whole entry): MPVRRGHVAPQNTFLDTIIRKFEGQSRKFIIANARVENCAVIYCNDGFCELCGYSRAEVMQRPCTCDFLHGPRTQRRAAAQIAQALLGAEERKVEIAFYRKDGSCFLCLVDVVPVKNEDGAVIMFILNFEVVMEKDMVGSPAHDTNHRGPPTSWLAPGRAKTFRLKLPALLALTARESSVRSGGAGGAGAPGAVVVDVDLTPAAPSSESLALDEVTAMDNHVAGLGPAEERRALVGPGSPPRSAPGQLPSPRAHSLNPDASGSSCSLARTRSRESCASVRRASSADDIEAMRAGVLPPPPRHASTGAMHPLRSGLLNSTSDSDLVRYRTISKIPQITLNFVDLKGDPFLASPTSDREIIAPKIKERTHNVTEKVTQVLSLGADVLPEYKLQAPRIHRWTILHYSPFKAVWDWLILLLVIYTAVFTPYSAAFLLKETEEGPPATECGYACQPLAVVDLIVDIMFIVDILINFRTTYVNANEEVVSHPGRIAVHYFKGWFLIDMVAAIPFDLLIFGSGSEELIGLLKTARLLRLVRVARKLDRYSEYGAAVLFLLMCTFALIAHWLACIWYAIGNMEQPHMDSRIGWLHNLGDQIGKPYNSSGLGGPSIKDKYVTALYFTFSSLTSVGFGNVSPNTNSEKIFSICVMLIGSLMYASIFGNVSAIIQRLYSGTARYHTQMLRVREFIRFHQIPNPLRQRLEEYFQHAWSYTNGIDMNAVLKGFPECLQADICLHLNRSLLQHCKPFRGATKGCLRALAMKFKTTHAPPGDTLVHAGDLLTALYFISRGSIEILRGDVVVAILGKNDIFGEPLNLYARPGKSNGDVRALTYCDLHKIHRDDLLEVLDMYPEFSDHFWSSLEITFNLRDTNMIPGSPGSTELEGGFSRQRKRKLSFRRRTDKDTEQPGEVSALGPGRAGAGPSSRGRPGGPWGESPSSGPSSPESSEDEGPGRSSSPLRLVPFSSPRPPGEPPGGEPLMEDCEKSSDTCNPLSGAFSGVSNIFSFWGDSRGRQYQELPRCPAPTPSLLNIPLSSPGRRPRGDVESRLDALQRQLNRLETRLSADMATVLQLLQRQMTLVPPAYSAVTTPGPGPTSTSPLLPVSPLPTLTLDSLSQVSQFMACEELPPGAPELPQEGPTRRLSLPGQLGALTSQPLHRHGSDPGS
Chain of human stimulator of interferon genes (STING) (139-379) (Q86WV6 139-379): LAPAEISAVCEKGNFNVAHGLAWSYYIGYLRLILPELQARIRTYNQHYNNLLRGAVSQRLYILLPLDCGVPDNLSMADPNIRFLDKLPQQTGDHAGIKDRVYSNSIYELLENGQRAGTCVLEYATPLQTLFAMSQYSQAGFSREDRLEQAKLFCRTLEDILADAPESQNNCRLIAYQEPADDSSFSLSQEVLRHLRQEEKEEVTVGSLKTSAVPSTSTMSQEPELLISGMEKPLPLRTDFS

Structure (SMILES) | pIC50 (STING (IFN-β in hPBMC)) | pIC50 (hERG channel) | IC20 (hERG channel) [nM] | clearance ([1]; IV 1 mg/kg) [mL/min/kg] | AUC [1, 5] [ng·h/mL] | half-life ([1]; IV 1 mg/kg) [min] | Vd ([1]; IV 1 mg/kg) [L/kg] | Cmax ([1]; PO 10 mg/kg) [ng/mL] | AUC [1, 6] [ng·h/mL] | F [1] [%] | Clearance of human microsome [2] [mL/min/kg] | pIC50 [3] | Clearance of human microsome [4] [mL/min/kg]
COc1cc(F)ccc1-n1ncc2c(N3C[C@@H]4C[C@H]3C(=O)N(C)CCCc3c5c(cccc5nn3C)-c3ccnc(n3)N4)ncnc21 [Example 6, (8S,11S)-10-[1-(4-fluoro-2-methoxy-phenyl)pyrazolo[3,4-d]pyrimidin-4-yl]-13,18-dimethyl-5,7,10,13,18,19,26-heptazapentacyclo[15.6.1.1^2,6.1^8,11.0^20,24]hexacosa-1(23),2,4,6(26),17(24),19,21-heptaen-12-one] | 6.23 | < 4.70 | > 10000 | 14.5 | 1120 | 48 | 0.9 | 2990 | 4740 | 42 | 15.7 | 8.30 | –
CN1CCCc2c3c(cccc3nn2C)-c2cccc(n2)O[C@H]2C[C@@H](C1=O)N(c1ncnc3c1cnn3-c1ccc(F)cc1F)C2 [Example 9, (8S,11S)-10-[1-(2,4-difluorophenyl)pyrazolo[3,4-d]pyrimidin-4-yl]-13,18-dimethyl-7-oxa-10,13,18,19,26-pentazapentacyclo[15.6.1.1^2,6.1^8,11.0^20,24]hexacosa-1(23),2(26),3,5,17(24),19,21-heptaen-12-one] | 5.80 | < 4.70 | > 10000 | – | – | – | – | – | – | – | 11.6 | 7.75 | –
Cn1nc2cccc3c2c1CCCNC(=O)[C@@H]1C[C@@H](CN1c1ncnc2c1cnn2-c1ccc(F)cc1F)Oc1ccnc-3c1 [Example 10, (8S,11S)-10-[1-(2,4-difluorophenyl)pyrazolo[3,4-d]pyrimidin-4-yl]-18-methyl-7-oxa-3,10,13,18,19-pentazapentacyclo[15.6.1.1^2,6.1^8,11.0^20,24]hexacosa-1(23),2(26),3,5,17(24),19,21-heptaen-12-one] | – | < 5.00 | 8200 | – | – | – | – | – | – | – | 8.3 | 8.29 | –
CN1CCCc2c3c(cccc3nn2C)-c2ccnc(n2)O[C@H]2C[C@@H](C1=O)N(c1ncnc3c1cnn3-c1ccc(F)cc1F)C2 [Example 11, (8S,11S)-10-[1-(2,4-difluorophenyl)pyrazolo[3,4-d]pyrimidin-4-yl]-13,18-dimethyl-7-oxa-5,10,13,18,19,26-hexazapentacyclo[15.6.1.1^2,6.1^8,11.0^20,24]hexacosa-1(23),2(26),3,5,17(24),19,21-heptaen-12-one] | 6.10 | < 4.70 | > 10000 | 11.1 | 1500 | 60 | 0.8 | 2780 | 7120 | 48 | 6.1 | 7.67 | –
COc1cc(F)ccc1-n1ncc2c(N3C[C@@H]4C[C@H]3C(=O)N(CCCN3CCOCC3)CCCc3c5c(cccc5nn3C)-c3cccc(n3)N4)ncnc21 [Example 43, (8S,11S)-10-[1-(4-fluoro-2-methoxy-phenyl)pyrazolo[3,4-d]pyrimidin-4-yl]-18-methyl-13-(3-morpholinopropyl)-7,10,13,18,19,26-hexazapentacyclo[15.6.1.1^2,6.1^8,11.0^20,24]hexacosa-1(23),2(26),3,5,17(24),19,21-heptaen-12-one] | 6.53 | < 4.70 | > 10000 | – | – | – | – | – | – | – | 12.0 | 8.46 | –
COc1cc(F)ccc1-n1ncc2c(N3C[C@@H]4C[C@H]3C(=O)N(CCCN3CCOCC3)CCCc3c5c(ccc(F)c5nn3C)-c3cccc(n3)N4)ncnc21 [Example 45, (8S,11S)-21-fluoro-10-[1-(4-fluoro-2-methoxy-phenyl)pyrazolo[3,4-d]pyrimidin-4-yl]-18-methyl-13-(3-morpholinopropyl)-7,10,13,18,19,26-hexazapentacyclo[15.6.1.1^2,6.1^8,11.0^20,24]hexacosa-1(23),2(26),3,5,17(24),19,21-heptaen-12-one] | 6.24 | – | – | – | – | – | – | – | – | – | 15.9 | 8.41 | –
COc1cc(F)ccc1-n1ncc2c(N3C[C@@H]4C[C@H]3C(=O)N(CCCN3CCOCC3)CCCc3c5c(cccc5nn3C)-c3ccnc(n3)N4)ncnc21 [Example 47, (8S,11S)-10-[1-(4-fluoro-2-methoxy-phenyl)pyrazolo[3,4-d]pyrimidin-4-yl]-18-methyl-13-(3-morpholinopropyl)-5,7,10,13,18,19,26-heptazapentacyclo[15.6.1.1^2,6.1^8,11.0^20,24]hexacosa-1(23),2(26),3,5,17(24),19,21-heptaen-12-one] | – | – | – | – | – | – | – | – | – | – | – | 8.14 | 6.1
